Experimental data taken from US20080249144A1, “Preventive or Therapeutic Agent for Chronic Inflammatory Lung Disease” (KAKEN PHARMACEUITICAL CO., LTD., priority 2004, published 2008).

Columns and labels:
human neutrophils = test: LTB4-induced human neutrophil migration (48-well modified Boyden chamber); assay type: cell-based
Experimental: Leukocytes were collected from human peripheral blood samples (20 mL of venous blood was taken by a doctor) were obtained from 4 healthy adults (male). They received sufficient information on the purpose of the experiment and gave informed consent in advance. An equivalent amount of 3% dextran (M.W. 208000) saline solution was added to the heparinized blood thus obtained and the mixture was kept to stand for one hour. Thereafter, the supernatant was collected and centrifuged at 150 g for 5 minutes at 4° C. The supernatant was discarded and the pellet was repeatedly twice haemolysed. To explain in detail, 4 mL of an ice-cooled 0.2% NaCl solution was added, quickly suspended and allowed to stand for 20 to 30 seconds. Thereafter, 4 mL of an ice-cooled 1.6% NaCl solution was added to the suspension solution to return the solution to the isotonic condition. After centrifugation was performed at 150 g for 5 minutes at 4° C., the same treatment was repeated. The cell pellet obtained was finally suspended in a buffer (Hank's solution containing 0.1% FBS) and subjected to an experiment.
This experiment was performed using a 48-well modified Boyden chamber (Neuro Probe). To explain in detail, the wells of the bottom plate of the chamber were filled with 25 μl of vehicle solution containing 10 nmol/L of LTB4. A polycarbonate filter (PVP-free, pore size: 3 μm) was placed on the bottom plate. The top plate of the chamber was mounted and each well of the upper plate was filled with 45 μL of a leukocyte suspension solution (1.0×10^6 cells/mL) prepared with the buffer. Immediately after that, 5 μL of a test substance (10 fold concentration of a final concentration) was added to the wells. […] The numbers of cells were counted in 4 visual fields (×400) per well and the average of them was regarded as the number of migrated cells. Each test substance was evaluated using 3 wells. The average value of these wells was calculated and regarded as the value of each substance.
The average and standard deviation of each group were calculated. […]

[1] = system: PPE-induced pulmonary emphysema model; test: PPE-induced pulmonary emphysema model in mice; assay type: in vivo
Experimental: Eight-week old C57BL strain mice were anaesthetized with isoflurane. PPE (25 μg) was administered once to the lung through a cannula inserted into the trachea through the pharyngolarynx to induce a pulmonary damage. To a non-PPE administration group (normal group), saline was administered instead. In a preventive administration experiment (hereinafter referred to as a “preventive experiment”) of KP-496, drug effect was evaluated on inflammatory cells in BALF 2 days after PPE administration and by histopathological examination of the lung after 10 days. In a therapeutic administration experiment of KP-496 (hereinafter referred to as a “therapeutic experiment”), the drug effect was evaluated by histo-pathological examination of the lung and weight of the organs 14 days after PPE administration.
The medicament administration period was set from the PPE administration date to the day before autopsy in the preventive experiment and set from a predetermined day (KP-496A group: PPE administration date, KP-496B group: 3 days after PPE administration date, KP-496C group: 7 days after PPE administration date) to the day before autopsy in the therapeutic experiment. Inhalation administration of KP-496 was performed in the same manner as in Example 2. Furthermore, the normal group and the control group were allowed to spontaneously inhale saline, instead. A medicament for use in comparison, prednisolone, was orally administered in a dose of 5 mg/kg twice a day. A group consisted of 10 animals.
The animals were anaesthetized with pentobarbital and killed by exsanguination. Immediately after that, BAL of the right and left lungs was performed with 2 ml of saline. In the same manner as in Example 2, the total number of cells and the number of cells according to the cell type in the BALE were determined.
The lung was excised out from the animal killed by exsanguination in the same manner as in the above, the weight of the lung was measured. The lung was fixed in 10 vol % neutral buffered formalin solution. A pathological tissue sample was prepared in accordance in a general way. The degree of the damage of the lung tissue observed was evaluated by scoring in the same manner as in Example 2. Furthermore, the average of alveolar-space area of the entire lung tissue sample was computationally measured with image-processing software.
The average value and standard deviation of each group were calculated. Comparison between the normal group and the control group was performed by the Levene's test for equal variance and then, the t-test was performed depending on the results. To compare the control group and test substance administration groups, equal variance was first confirmed by the Levene's test and then multiple comparisons were performed in accordance with the Dunnett's test. Note that evaluation parameters with unequal variance and the damage score of the lung tissue were analyzed by nonparametric Mann-Whitney test. The significance level employed was […].

[2] = 2 days after PPE, compared to control group
[3] = preventive experiment, 10 days after PPE

weights of the organs (liver, spleen and thymus gland) ([1]; mouse, in vivo): No effect was observed
Structure (SMILES): CC(C)c1csc(COc2cccc(CN(CCCCNS(=O)(=O)c3ccc(Cl)cc3)S(=O)(=O)c3ccccc3C(=O)O)c2)n1 [KP-496, 2-{N-[4-(4-chlorobenzenesulfonylamino)butyl]-N-{3-[(4-isopropyl-2-thiazolyl)methoxy]benzyl}}sulfamoylbenzoic acid]
suppression of LTB4-induced cell migration, concentration dependence (human neutrophils; 10 nmol/L LTB4, human leukocytes, 1.5 hours): suppressed the cell migration in a concentration dependent manner
suppression of LTB4-induced neutrophil migration (human neutrophils; test substance 1 μmol/L, 10 nmol/L LTB4): significantly suppressed
total number of cells in BALF ([1]; 2 days after PPE administration, preventive experiment): 3.1±0.8 ×10^5 cells
number of eosinophils in BALF [1, 2]: lower values than in the control group
number of macrophages in BALF [1, 2]: significantly decreased
number of neutrophils in BALF [1, 2]: significantly decreased
emphysema-like pathology of the lung (histopathology) [1, 3]: the pathologic lesion was localized and mild
increase in lung weight [1, 3]: significantly suppressed
damage score of the lung ([1]; preventive experiment, 10 days after PPE, compared with control group): significantly decreased
increase of the average of the alveolar-space area ([1]; preventive experiment, compared to control): significantly suppressed
lung weight ([1]; therapeutic experiment, 14 days after PPE, despite difference of the administration initiation date): lower values than the control group
damage score of the lung ([1]; therapeutic experiment, 14 days after PPE, each of the groups (start day 0, 3 or 7)): significantly decreased
lung weight, difference to control group ([1]; therapeutic experiment, administration started from PPE administration date): a significant difference was observed
increase of the average of the alveolar-space area ([1]; therapeutic experiment, each of the groups (start day 0, 3 or 7)): significantly suppressed
